Data taken from US20050176705A1, “Compounds useful in the treatment of cns disorders” (priority 2000, published 2005).
pKi: −log10 of the molar value. Where a name gives a salt, the structure may show the parent alone.

These molecules were tested against T1, human cloned 5-HT6 receptors (Homo sapiens, UniProt P50406) (assay: 5-HT6 receptor affinity (procedures outlined in WO 98/27081)). Conditions: not given.
T1 construct: expressed in transfected cells
T1 sequence (P50406 whole entry): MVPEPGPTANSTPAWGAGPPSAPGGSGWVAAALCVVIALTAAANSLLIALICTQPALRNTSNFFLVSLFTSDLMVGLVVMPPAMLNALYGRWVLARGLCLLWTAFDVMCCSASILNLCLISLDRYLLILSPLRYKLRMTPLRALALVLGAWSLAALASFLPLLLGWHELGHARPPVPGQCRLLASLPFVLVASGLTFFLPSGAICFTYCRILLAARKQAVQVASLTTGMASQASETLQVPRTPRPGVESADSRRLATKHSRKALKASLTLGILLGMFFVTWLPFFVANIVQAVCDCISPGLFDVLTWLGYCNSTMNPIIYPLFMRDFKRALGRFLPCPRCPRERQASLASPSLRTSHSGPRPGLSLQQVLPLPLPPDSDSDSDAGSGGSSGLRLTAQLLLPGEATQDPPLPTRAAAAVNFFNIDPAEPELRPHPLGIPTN
Assay type: binding
In the case of `O=S(=O)(c1cccc(F)c1)n1ccc2c(N3CCNCC3)cccc21` [Example E22], the pKi was 8.80 to 9.70.
With `O=S(=O)(c1cccc2nsnc12)n1ccc2c(N3CCNCC3)cccc21` [Example E40] the pKi was 8.80 to 9.70.
`O=S(=O)(c1c(Cl)cccc1Cl)n1ccc2c(N3CCNCC3)cccc21` [Example E70] showed a pKi of 8.80 to 9.70.
With `COc1ccc2c(ccn2S(=O)(=O)c2ccc(C)cc2)c1N1CCNCC1` [Example E80, 5-Methoxy-4-(piperazin-1-yl)-1-(toluene-4-sulfonyl)-1H-indole] the pKi was 8.80 to 9.70.
With `CN1CCN(c2cccc3c2ccn3S(=O)(=O)c2cccs2)CC1` [Example E98] the pKi was 8.80 to 9.70.
Work on `O=S(=O)(c1cccc(Br)c1)n1ccc2c(N3CCNCC3)cccc21` [Example E107] yielded a pKi of 8.80 to 9.70.
Work on `O=S(=O)(c1cccc(Cl)c1)n1ccc2c(N3CCNCC3)cccc21` [Example E111] yielded a pKi of 8.80 to 9.70.
With `Cc1ccc(S(=O)(=O)n2ccc3c(N4CCNCC4)cccc32)cc1Cl` [Example E112] the pKi was 8.80 to 9.70.
`O=S(=O)(c1ccc(Br)cc1)n1ccc2c(N3CCNCC3)cccc21` [Example E113] showed a pKi of 8.80 to 9.70.
For `O=[N+]([O-])c1cccc(S(=O)(=O)n2ccc3c(N4CCNCC4)cccc32)c1` [Example E119], the pKi was 8.80 to 9.70.
With `O=S(=O)(c1cccs1)n1ccc2c(N3CCNCC3)cccc21` [Example E121] the pKi was 8.80 to 9.70.
For `O=S(=O)(c1ccc(F)c(Cl)c1)n1ccc2c(N3CCNCC3)cccc21` [Example E123], the pKi was 8.80 to 9.70.
`O=S(=O)(c1ccccc1Br)n1ccc2c(N3CCNCC3)cccc21` [Example E126] gave a pKi of 8.80 to 9.70.
`O=S(=O)(c1cc(F)cc(F)c1Cl)n1ccc2c(N3CCNCC3)cccc21` [Example E131, 1-(2-Chloro-3,5-difluorobenzenesulfonyl)-4-piperazin-1-yl-1H-indole] gave a pKi of 8.80 to 9.70.
`O=S(=O)(c1cccc(Cl)c1)n1ccc2c(N3CCNCC3)c(Cl)ccc21` [Example E132, 5-Chloro-1-(3-chlorobenzenesulfonyl)-4-piperazin-1-yl-1H-indole hydrochloride] gave a pKi of 8.80 to 9.70.
`O=S(=O)(c1ccccc1)n1ccc2c(N3CCNCC3)c(Cl)ccc21` [Example E135, 1-(Benzenesulfonyl)-5-chloro-4-piperazin-1-yl-1H-indole hydrochloride] was tested, and the pKi was 8.80 to 9.70.
With `O=S(=O)(c1ccccc1Br)n1ccc2c(N3CCNCC3)c(Cl)ccc21` [Example E137, 1-(2-Bromobenzenesulfonyl)-5-chloro-4-piperazin-1-yl-1H-indole hydrochloride] the pKi was 8.80 to 9.70.
With `Cc1cccc(S(=O)(=O)n2ccc3c(N4CCNCC4)c(Cl)ccc32)c1` [Example E140, 5-Chloro-1-(3-methylbenzenesulfonyl)-4-piperazin-4-yl-1H-indole hydrochloride] the pKi was 8.80 to 9.70.
Molecule `O=S(=O)(c1ccccn1)n1ccc2c(N3CCNCC3)c(Cl)ccc21` [Example E149, 5-Chloro-1-(pyridine-2-sulfonyl)-4-piperazin-4-yl-1H-indole hydrochloride] has a pKi of 8.80 to 9.70.
For `O=S(=O)(c1cccc(Cl)c1)n1cc(Cl)c2c(N3CCNCC3)cccc21` [Example E151, 3-Chloro-1-(3-chlorobenzenesulfonyl)4-piperazin-1-yl-1H-indole hydrochloride], the pKi was 8.80 to 9.70.
Molecule `O=S(=O)(c1cccc(Cl)c1)n1ccc2c(N3CCNCC3)ccc(Cl)c21` [Example E152, 7-Chloro-1-(3-chlorobenzenesulfonyl)-4-piperazin-1-yl-1H-indole hydrochloride] has a pKi of 8.80 to 9.70.
Work on `O=S(=O)(c1cc(Cl)cc(Cl)c1)n1ccc2c(N3CCNCC3)ccc(Cl)c21` [Example E153, 7-Chloro-1-(3,5-dichlorobenzenesulfonyl)-4-piperazin-1-yl-1H-indole hydrochloride] yielded a pKi of 8.80 to 9.70.
Work on `O=S(=O)(c1ccccc1)n1ccc2c(N3CCNCC3)ccc(Cl)c21` [Example E154, 1-Benzenesulfonyl-7-choro-4-piperazin-1-yl-1H-indole hydrochloride] yielded a pKi of 8.80 to 9.70.
For `O=S(=O)(c1cccc(Cl)c1)n1ccc2c(N3CCNCC3)ccc(Br)c21` [Example E156, 7-Bromo-1-(3-chlorobenzenesulfonyl)-4-piperazin-1-yl-1H-indole hydrochloride], the pKi was 8.80 to 9.70.
Molecule `N#Cc1ccc(N2CCNCC2)c2ccn(S(=O)(=O)c3cccc(Cl)c3)c12` [Example E157, 7-Cyano-1-(3-chlorobenzenesulfonyl)-4-piperazin-1-yl-1H-indole hydrochloride] has a pKi of 8.80 to 9.70.
For `O=S(=O)(c1cccc(Cl)c1)n1cc(Cl)c2c(N3CCNCC3)c(Cl)ccc21` [Example E158, 1-(3-Chlorobenzenesulfonyl)-3,5-dichloro-4-piperazin-1-yl-1H-indole hydrochloride], the pKi was 8.80 to 9.70.
`O=S(=O)(c1cccc(Cl)c1)n1ccc2c(N3CCNCC3)c(Cl)cc(Cl)c21` [Example E159, 1-(3-Chlorobenzenesulfonyl)-5,7-dichloro piperazin-1-yl-1H-indole hydrochloride] was tested, and the pKi was 8.80 to 9.70.
In the case of `O=S(=O)(c1cccc(Cl)c1)n1ccc2c(N3CCNCC3)c(F)ccc21` [Example E163, 1-(3-Chlorobenzenesulfonyl)-5-fluoro-4-piperazin-1-yl-1H-indole hydrochloride], the pKi was 8.80 to 9.70.
Molecule `Cc1cc2c(N3CCNCC3)cccc2n1S(=O)(=O)c1cccc(Cl)c1` [Example E165, 1-(3-Chlorobenzenesulfonyl)-2-methyl-4-piperazin-1-yl-1H-indole hydrochloride] has a pKi of 8.80 to 9.70.
`O=S(=O)(c1cccc(Cl)c1)n1ccc2c(N3CCNCC3)cc(Cl)cc21` [Example E166, 6-Chloro-1-(3-chlorobenzenesulfonyl)-4-piperazin-1-yl-1H-indole hydrochloride] showed a pKi of 8.80 to 9.70.
In the case of `Cc1cn(S(=O)(=O)c2cccc(Cl)c2)c2cccc(N3CCNCC3)c12` [Example E167, 1-(3-Chlorobenzenesulfonyl)-3-methyl-4-piperazin-1-yl-1H-indole hydrochloride], the pKi was 8.80 to 9.70.
Molecule `N#Cc1cc(Br)ccc1S(=O)(=O)n1ccc2c(N3CCNCC3)cccc21` [Example E171, 1-(4-Bromo-2-cyanobenzenesulfonyl)-4-piperazin-1-yl-1H-indole hydrochloride] has a pKi of 8.80 to 9.70.
`COc1ccc2c(ccn2S(=O)(=O)c2cccc(Cl)c2)c1N1CCNCC1` [Example E172, 1-(3-Chlorobenzenesulfonyl)-5-methoxy-4-piperazin-1-yl-1H-indole hydrochloride] showed a pKi of 8.80 to 9.70.
`COc1ccc(N2CCNCC2)c2ccn(S(=O)(=O)c3cccc(Cl)c3)c12` [Example E173, 1-(3-Chlorobenzenesulfonyl)-7-methoxy-4-piperazin-1-yl-1H-indole hydrochloride] gave a pKi of 8.80 to 9.70.

Same assay, conditions: human cloned 5-HT6 receptors; procedures of WO 98/27081; read-out: pKi at human cloned 5-HT6 receptors (converted)
For `O=S(=O)(c1ccc2ccccc2c1)n1ccc2c(N3CCNCC3)c(Cl)ccc21` [Example E77, 5-Chloro-1-(naphthalene-2-sulfonyl)-4-piperazin-1-yl-1H-indole trifluoroacetic acid salt], the Ki was 0.2 to 1.58 nM.
With `COc1c(Cl)cc(Cl)cc1S(=O)(=O)n1ccc2c(N3CCNCC3)c(Cl)ccc21` [Example E78, 5-Chloro-1-(3,5-dichloro-2-methoxybenzenesulfonyl)-4-piperazin-1-yl-1H-indole trifluoroacetic acid salt] the Ki was 0.2 to 1.58 nM.
`CN1CCN(c2cccc3c2ccn3S(=O)(=O)c2cccc(Br)c2)CC1` [Example E82] gave a Ki of 0.2 to 1.58 nM.
In the case of `CN1CCN(c2cccc3c2ccn3S(=O)(=O)c2cc(Br)c(Cl)s2)CC1` [Example E85], the Ki was 0.2 to 1.58 nM.
With `CN1CCN(c2cccc3c2ccn3S(=O)(=O)c2cccc(Cl)c2)CC1` [Example E87] the Ki was 0.2 to 1.58 nM.
For `CN1CCN(c2cccc3c2ccn3S(=O)(=O)c2ccc3ccccc3c2)CC1` [Example E90], the Ki was 0.2 to 1.58 nM.
In the case of `CN1CCN(c2cccc3c2ccn3S(=O)(=O)c2ccccc2C(F)(F)F)CC1` [Example E91], the Ki was 0.2 to 1.58 nM.
Molecule `CN1CCN(c2cccc3c2ccn3S(=O)(=O)c2cccc(C(F)(F)F)c2)CC1` [Example E93] has a Ki of 0.2 to 1.58 nM.
In the case of `CN1CCN(c2cccc3c2ccn3S(=O)(=O)c2ccccc2)CC1` [Example E94], the Ki was 0.2 to 1.58 nM.
`CN1CCN(c2cccc3c2ccn3S(=O)(=O)c2cc(Cl)cc(Cl)c2)CC1` [Example E99] was tested, and the Ki was 0.2 to 1.58 nM.
With `CN1CCN(c2cccc3c2ccn3S(=O)(=O)c2ccc(F)c(Cl)c2)CC1` [Example E100] the Ki was 0.2 to 1.58 nM.
`CN1CCN(c2cccc3c2ccn3S(=O)(=O)c2ccccc2Br)CC1` [Example E103] showed a Ki of 0.2 to 1.58 nM.
In the case of `O=S(=O)(c1ccccc1C(F)(F)F)n1ccc2c(N3CCNCC3)cccc21` [Example E115], the Ki was 0.2 to 1.58 nM.
`O=S(=O)(c1cccc(C(F)(F)F)c1)n1ccc2c(N3CCNCC3)c(Cl)ccc21` [Example E139, 5-Chloro-1-(3-trifluoromethyl-benzenesulfonyl)-4-piperazin-1-yl-1H-indole hydrochloride] showed a Ki of 0.2 to 1.58 nM.
For `O=S(=O)(c1ccc(Cl)cc1OC(F)(F)F)n1ccc2c(N3CCNCC3)cccc21` [Example E168, 1-(4-Chloro-2-trifluoromethoxybenzenesulfonyl)-4-piperazin-1-yl-1H-indole hydrochloride], the Ki was 0.2 to 1.58 nM.
`N#Cc1cc(Br)ccc1S(=O)(=O)n1ccc2c(N3CCNCC3)c(Cl)ccc21` [Example E170, 1-(4-Bromo-2-cyanobenzenesulfonyl)-5-chloro-4-piperazin-1-yl-1H-indole hydrochloride] gave a Ki of 0.2 to 1.58 nM.
In the case of `O=S(=O)(c1cccc(Cl)c1)n1ccc2c(N3CCCNCC3)ccc(Cl)c21` [Example E175, 7-Chloro-1-(3-chlorobenzenesulfonyl)-4-[1,4]diazepan-1-yl-1H-indole hydrochloride], the Ki was 0.2 to 1.58 nM.
